Experimental findings from patent US20100204460A1, “NATURAL BRASSINOSTEROIDS FOR USE FOR TREATING HYPERPROLIFERATION, TREATING PROLIFERATIVE DISEASES AND REDUCING ADVERSE EFFECTS OF STEROID DYSFUNCTION IN MAMMALS, PHARMACEUTICAL COMPOSITION AND ITS USE” (priority 2007, published 2010) are described below.

The test system of one experiment is DU-145 cells. Nature of the experiment: BrdU incorporation assay, DU-145. The class given is cell-based. As for the experimental part:
To analyze if the inhibition in cell viability was due to decreased cell proliferation, we measured DNA synthesis in the presence of BRs. The effect of brassinosteroids 9 or 6 on cell proliferation and DNA replication of the cancer cells was measured by BrdU incorporation assay. This immunostaining was based on nuclear incorporation of bromodeoxyuridine (BrdU) into DNA in place of thymidine during the S-phase of cell cycle detected by anti-specific-BrdU antibody following membrane permeabilization as described previously (Gratzner, Science. 1982, 218, 474-475). […] The BrdU reagent (0.1 mM; Sigma, MO, USA) was added in culture medium with cells for 4 h in a CO2 incubator at 37° C. After incubation the cells were washed three times with PBS and fixed with cold acetone-methanol (1:1, v/v) for 10 min. The cells were denaturated by HCl (1:5; Lachema, Czech Republic) and incubated with anti-specific-BrdU antibody (diluted 1:100 in PBS; clone Bu20a, DakoCytomation, Denmark) for 60 min in the dark. The cells were then washed three times in PBS (10 mM, pH 7.4) and incubated with goat anti-mouse fluorescein isothiocyanate (FITC)-labeled secondary antibody (Sigma, MO, USA) for 60 min in the dark. The cells were then washed three times in PBS and incubated with DAPI (50 μg/mL; Sigma, MO, USA) for 10 min in the dark. The coverslips with cells were washed in deionized water and mounted on glass slides, using the hydrophilic medium Mowiol (Calbiochem, Calif., USA) in glycerol-PBS (1:3, v/v) for fluorescence. Cells were visualized using microscopy and those incorporating BrdU (S phase cells) were counted in at least 25 fields and compared with the total number of all cells.
In general terms: Uptake of a labelled nucleoside into DNA is a usual measure of proliferation.

In another experiment the test system is MCF-7 cells. Description: Western blot of cell cycle and apoptosis related proteins, MCF-7. The class given is cell-based. The following applies: for MDM-2 expression (Western blot) / expression of apoptosis related proteins (Bcl-2 family, caspase-3 activation) (Western blot) / p21Waf1/Cip1 expression (Western blot) / p27Kip1 expression (Western blot) / p53 expression (Western blot): IC50 for 6, 12, 24 h vs untreated control; for retinoblastoma protein (Rb) expression, phosphorylated and dephosphorylated forms (Western blot): vs untreated control. As to the method: The cells were seeded in a density 1.6×10^4 cells/cm^2 (LNCaP), 1.4×10^4 cells/cm^2 (DU-145, MDA-MB-468 and MCF-7) using culture medium in 100-mm culture Petri dishes. After reaching of 70-80% confluence, the cells were treated with tested compounds 9 in concentration IC50 that were evaluated by MTT analysis described above. DMSO was used as a vehicle for controls. After 6, 12 and 24 h treatment, the cells were washed with cold PBS and scraped in ice-cold protein extract ion buffer (50 mM HEPES, pH 7.5; 150 mM NaCl; 1 mM EDTA; 2.5 mM EGTA; 10% glycerol; 0.1% Tween 20) with protease and phosphatase inhibitors (25 μL/mL phenylmethanesulphonyl fluoride; 2.5 μL/mL leupeptin; 0.1 mM Na3VO4; 2.5 μL/mL aprotinin; 10 mM β-glycerol-phosphate; 1 mM dithiothreitol). The lysates were collected into microfuge tube and incubated on ice for 1 h. Cells were incubated 60 min at 4° C. under time by time shaking in protein extraction buffer. After centrifugation at 45 000×g for 30 min at 4° C., supernatant was collected, aliquoted, and stored at −80° C. The protein content in the lysates was measured by a Bredford assay (Bio-Rad Laboratories, Hercules, Calif., USA) according to the manufacture's protocol.
For Western blot analysis, equal aliquots of proteins (15-30 μg/well) were loaded on 10% or 12% SDS-PAGE gels and transferred onto nitrocellulose membranes (Amersham Biosciences, Vienna, Austria) by semi-dry electrophoretic transfer. Coloured marker (Rainbow™, Amersham Biosciences, Vienna, Austria) was used as a protein molecular weight standard. The non-specific binding sites were blocked by incubating the blot with 5% (w/v) non-fat dry milk in PBS for 2 h. The blot was incubated overnight in 4° C. with appropriate primary antibody that detects the protein epitope of interest and finally washed in PBS with 0.1% Tween 20 for 1 h. The blot was incubated with the diluted secondary goat anti-mouse IgG-horseradish peroxidase conjugated antibody (dilution 1:6000, Santa Cruz Biotechnology, Santa Cruz, Calif., USA) or goat anti-rabbit IgG-horseradish peroxidase conjugated antibody (dilution 1:2000, DakoCytomation, Glostrup, Denmark) for 45 min in 4° C. The membrane was washed in PBS with 0.1% Tween 20 for 1 h. The proteins were detected using a chemiluminescence detection system (Amersham Biosciences, Vienna, Austria) according to the protocol provided by the manufacturer. Equality of loaded proteins was confirmed by Ponceau S membrane staining (Sigma, St. Louis, Mo., USA) and by detection of anti-tubulin-α or anti-mcm-7 antibodies. The experiments were repeated three times. The protein expressions in treated cells were compared to untreated controls.
Western blot analysis was used to detect changes in apoptosis related protein expression in breast and prostate cancer cell lines. […] This decreased expression of Bid can indicate a cleavage of the protein after treatment by BRs. In DU-145 cell line, expression of pro-apoptotic proteins Bax and Bid was unchanged. […] On the other hand, caspase cleavage was not found in DU-145 cells. Poly-(ADP-ribose) polymerase (PARP) positive expression in controls of prostate cancer cell lines was observed but brassinosteroids had no effect on its expression nor on its degradation within the period 6/12/24 h (FIG. 6B).
A general note: In western blotting, separated proteins are transferred to a membrane and probed.

Setting [1] is: treated at IC50 for 6 h, control 51 ± 3.8.
Where [2] appears, read: treated at IC50 for 12 h, control 54 ± 4.2.
Where [3] appears, read: treated at IC50 for 24 h, control 56 ± 6.5.

Turning to `CC[C@@H](C(C)C)[C@@H](O)[C@H](O)[C@@H](C)[C@H]1CC[C@H]2[C@@H]3CC(=O)[C@H]4C[C@H](O)[C@H](O)C[C@]4(C)[C@H]3CC[C@]12C` [Brassinosteroid 9, 28-Homocastasterone], in the experiment on DU-145 cells (setting [1]), the “percentage of proliferating BrdU positive cells” value (from here on “percentage”) is 41 ± 4.5%. Besides, the “percentage” value with DU-145 cells (setting [2]) amounted to 36 ± 4.4 %. Further, in the experiment on DU-145 cells (setting [3]), the “percentage” value amounted to 38 ± 4.0 %. In the experiment with MCF-7 cells, the “MDM-2 expression (Western blot)” value was “decreased expression of MDM-2 regulator of p53 degradation after all time points”; the “expression of apoptosis related proteins (Bcl-2 family, caspase-3 activation) (Western blot)” value is “no significant changes in expression of Bcl-2 family protein nor caspase-3 activation”; the “p21Waf1/Cip1 expression (Western blot)” value was “increase in p21^Waf1/Cip1 and p27^Kip1 expression after 6 h”; the “p27Kip1 expression (Western blot)” value is “increase in p21^Waf1/Cip1 and p27^Kip1 expression after 6 h”. In addition, in the experiment with MCF-7 cells, the “p53 expression (Western blot)” value was “after 6 h exposition to brassinosteroids 9 or 6 a slight increase”; the “retinoblastoma protein (Rb) expression, phosphorylated and dephosphorylated forms (Western blot)” value is listed as “decreased”.

Regarding `CC(C)[C@@H](C)[C@@H](O)[C@H](O)[C@@H](C)[C@H]1CC[C@H]2[C@@H]3COC(=O)[C@H]4C[C@H](O)[C@H](O)C[C@]4(C)[C@H]3CC[C@]12C` [Brassinosteroid 6, 24-Epibrassinolide], the “percentage” value in the experiment with DU-145 cells (setting [1]) is 32 ± 3.8 %. Also, in the experiment on DU-145 cells (setting [2]), the “percentage” value is listed as 27 ± 5.3 %. The “percentage” value in the experiment with DU-145 cells (setting [3]) came out at 16 ± 1.5 %. The “cyclin D1 expression (Western blot)” value in the experiment with MCF-7 cells (6/12/24 h vs untreated control) is given as “decreased expression of cyclin D1”. In addition, in the experiment with MCF-7 cells, the “MDM-2 expression (Western blot)” value was “decreased expression of MDM-2 regulator of p53 degradation after all time points”; the “expression of apoptosis related proteins (Bcl-2 family, caspase-3 activation) (Western blot)” value is reported as “no significant changes in expression of Bcl-2 family protein nor caspase-3 activation”; the “p21Waf1/Cip1 expression (Western blot)” value was “unchanged”; the “p27Kip1 expression (Western blot)” value is “decrease after 6 and 12 h”. In addition, in the experiment with MCF-7 cells, the “p53 expression (Western blot)” value is given as “after 6 h exposition to brassinosteroids 9 or 6 a slight increase”; the “retinoblastoma protein (Rb) expression, phosphorylated and dephosphorylated forms (Western blot)” value was “decreased”.
